From patent publication US20260000668A1 (priority 2021, published 2026)
Values after ≈ are worked out from the molar mass of the structure shown. Where two headings read alike, the source gives them in different places.

Experiments:
[1] = system: SARS-Related Coronavirus 2 Isolate USA-WA1/2020; assay type: cell-based, SARS-COV-2; conditions: treatment 2 hours pre-infection; for Mean Log10 Reduction: Vero E6, MOI=0.1, 2 days, vs untreated control
[2] = physchem

| Compound | Mean Log10 Reduction ([1]; 10 μM) [Log10] | solubility ([2]; organic solvent or mixture) [mg/mL] | Mean Log10 Reduction ([1]; 1 μM) [Log10] | Mean Log10 Reduction ([1]; 2 μM) [Log10] | Mean Log10 Reduction ([1]; 4 μM) [Log10] | Mean Log10 Reduction ([1]; 8 μM) [Log10] | antiviral activity against SARS-COV-2 ([1]; 1-8 μM, Vero E6) | solubility ([2]; water) [mg/mL] |
| --- | --- | --- | --- | --- | --- | --- | --- | --- |
| CCC(CC)COC(=O)[C@H](C)N[P@](=O)(OC[C@H]1O[C@@](C#N)(c2ccc3c(N)ncnn23)[C@H](O)[C@@H]1O)Oc1ccccc1 [Remdesivir, reference compound] | 5.72 | 100 (≈ 166 mM) |  |  |  |  |  |  |
| CN1CCN(CCCc2ccc(C(c3ccccc3)C34CC5CC(CC(C5)C3)C4)cc2)CC1 (stereo not drawn) [AV1066, 1-Methyl-4-[3-[4-(phenyltricyclo[3.3.1.1^3,7]dec-1-ylmethyl)phenyl]propyl]piperazine] |  | 21 (≈ 47.4 mM) | 0.00 | 0.10 | 1.33 | 4.89 | exhibited antiviral activity against SARS-COV-2 in a dose dependent manner | 4 (≈ 9.04 mM) |
